Results: US5025010A, “Benzothiazinone derivatives, and pharmaceuticals containing them” (Hoechst Aktiengesellschaft, priority 1987, dated 1991)
pIC50: −log10 of the molar value. Structures can show the parent of a compound that is named as a salt.

Columns and labels:
calcium channels = experiment: displacement of tritium-labeled nitrendipine from membrane preparations containing isolated calcium channels; type: binding
Experimental: Their action on the calcium channels can be shown using the biochemical test model of the displacement of tritium-labeled nitrendipine. In this test, membrane preparations which contain isolated calcium channels are loaded with the labeled substance. After incubation with the test substance, the radioactivity released and the radioactivity remaining on the membrane are determined. The IC50 values shown by the compounds of the formula I, according to the invention, in this model are from 10^-6 molar to 10^-10 molar.

isolated rabbit aorta = experiment: isolated rabbit aorta: contraction of aorta rings depolarized with potassium chloride after pretreatment with the test substance; conditions: Oryctolagus cuniculus, concentration of 10^-6 M, KCl-depolarized aorta rings
Description: Their calcium antagonistic or calcium agonistic action can be shown using the model of the isolated rabbit aorta. This entails aorta rings being depolarized with potassium chloride, whereupon they contract. Pretreatment with the test substance is followed by a diminution in contraction in the case of the compounds acting as calcium antagonists, but by an intensification of contraction in the case of compounds acting as calcium agonists. For example, the compound from Example 2 at a concentration of 10^-6 M results in a 32% diminution in contraction. The compound from Example 3 at a concentration of 10^-6 M results in a 93% intensification of contraction.

| SMILES | pIC50 (calcium channels) | inhibition at 1 µM (isolated rabbit aorta; calcium antagonistic action, read-out: diminution in contraction) [%] | activation at 1 µM (isolated rabbit aorta; calcium agonistic action, read-out: intensification of contraction) [%] |
| --- | --- | --- | --- |
| COc1cc(CCN2CCN(CC#CCOc3ccccc3[C@@]3(C(C)C)Sc4ccccc4N(C)C3=O)CC2)cc(OC)c1OC [Example 2, (R)-2-Isopropyl-4-methyl-2-[2-[4-[4-(3,4,5-trimethoxyphenethyl)-1-piperazinyl]-2-butyn-1 yloxy]phenyl]-2H-1,4-benzothiazin-3(4H)-one dihydrochloride] | 9.92 | 32 |  |
| COc1cc(CCN2CCN(C/C=C\COc3ccccc3[C@@]3(C(C)C)Sc4ccccc4N(C)C3=O)CC2)cc(OC)c1OC [Example 3, (R)-2-isopropyl-4-methyl-2-[2-[4-[4-(3,4,5-trimethoxyphenethyl)-1-piperazinyl]-2-cis-buten-1-yloxy]phenyl]-2H-1,4-benzothiazin-3(4H)-one dihydrochloride] |  |  | 93 |
